Data taken from the NIST ThermoML archive (doi:10.1016/j.jct.2016.12.018).
Numbers after ± are expanded uncertainties.

What was measured:
[1] = refractive index (Na D-line) (dimensionless); conditions: 293.15 K; 100 kPa; Liquid; Standard Abbe refractometry
[2] = 293.15 K; 100 kPa; Liquid; Vibrating tube method

refractive index [1] | mass density [2] | SMILES
1.33299 ± 0.001 | – | O [water]
1.45756 ± 0.0011 | 924.84 ± 2 kg/m3 | CC12CCC(CC1)C(C)(C)O2 [1,3,3-trimethyl-2-oxabicyclo[2.2.2]octane]
